Measurements reported in patent US12377104B1, “Methods for treating a fatty liver disease” (Madrigal Pharmaceuticals, Inc., priority 2024, dated 2025).

Legend:
[1] = tested on: adults with biopsy-confirmed NASH; assay: MAESTRO-NASH: adverse events, serious adverse events, malignancies
Source text: Safety end points included adverse events, biochemical assessments, and clinical assessments. Selected serious adverse events (including deaths, cardiovascular events, and potential drug-induced liver injury) were adjudicated by independent, external event-adjudication committees whose members were unaware of the trial-group assignments.

[2] = Excretion after 100 mg radio-labeled oral dose; format: in vivo, human
Source text: A metabolite MGL-3623 accounted for 3.3% and 16% of the dose recovered in feces and urine, respectively.

[3] = 100 mg (n = 323), safety population

CC(C)c1cc(Oc2c(Cl)cc(-n3nc(C#N)c(=O)[nH]c3=O)cc2Cl)n[nH]c1=O [Resmetirom, 2-(3,5-dichloro-4-((5-isopropyl-6-oxo-1,6-dihydropyridazin-3-yl)oxy)phenyl)-3,5-dioxo-2,3,4,5-tetrahydro-1,2,4-triazine-6-carbonitrile]
Adverse event leading to trial discontinuation during entire treatment period, percent of patients ([1]; 100 mg): (7.7) percent
Arthralgia, number of patients ([1]; 100 mg): 35
Arthralgia, percent of patients ([1]; 100 mg): (10.8) percent
Back pain, number of patients ([1]; 100 mg): 27
Back pain, percent of patients ([1]; 100 mg): (8.4) percent
Cancer reported, patients ([1]; 100 mg): 3.4%
Covid-19, number of patients ([1]; 100 mg): 54
Covid-19, percent of patients ([1]; 100 mg): (16.7) percent
Diarrhea, number of patients ([1]; 100 mg): 108
Diarrhea, percent of patients ([1]; 100 mg): (33.4) percent
Fatal adverse event, number of patients ([1]; 100 mg): 2
Fatal adverse event, percent of patients ([1]; 100 mg): (0.6) percent
Fatigue, number of patients ([1]; 100 mg): 26
Fatigue, percent of patients ([1]; 100 mg): (8.0) percent
Grade 1: mild, number of patients ([1]; 100 mg): 66
Grade 1: mild, percent of patients ([1]; 100 mg): (20.4) percent
Grade 2: moderate, number of patients ([1]; 100 mg): 183
Grade 2: moderate, percent of patients ([1]; 100 mg): (56.7) percent
Grade 3 or higher: severe, number of patients ([1]; 100 mg): 47
Grade 3 or higher: severe, percent of patients ([1]; 100 mg): (14.6) percent
Major adverse cardiovascular event, number of patients ([1]; 100 mg): 1
Major adverse cardiovascular event, percent of patients ([1]; 100 mg): (0.3) percent
Nausea, number of patients ([1]; 100 mg): 61
Nausea, percent of patients ([1]; 100 mg): (18.9) percent
Other cardiovascular event, number of patients ([1]; 100 mg): 1
Other cardiovascular event, percent of patients ([1]; 100 mg): (0.3) percent
Pruritus, number of patients ([1]; 100 mg): 37
Pruritus, percent of patients ([1]; 100 mg): (11.5) percent
Urinary tract infection, number of patients ([1]; 100 mg): 27
Urinary tract infection, percent of patients ([1]; 100 mg): (8.4) percent
≥1 Adverse event attributed to resmetirom, number of patients ([1]; 100 mg): 134
≥1 Adverse event attributed to resmetirom, percent of patients ([1]; 100 mg): (41.5) percent
≥1 Adverse event, number of patients ([1]; 100 mg): 296
≥1 Adverse event, percent of patients ([1]; 100 mg): (91.6) percent
≥1 Serious adverse event attributed to resmetirom, number of patients ([1]; 100 mg): 0
≥1 Serious adverse event, number of patients ([1]; 100 mg): 41
Malignancy: Basal cell carcinoma ([1]; 100 mg (N = 323)): 3 (0.9) n (%)
Malignancy: Breast carcinoma ([1]; 100 mg (N = 323)): 2 (0.6) n (%)
Malignancy: Malignant melanoma ([1]; 100 mg (N = 323)): 1 (0.3) n (%)
Malignancy: Skin cancer (squamous cell) ([1]; 100 mg (N = 323)): 1 (0.3) n (%)
Patients with any malignancy ([1]; 100 mg (N = 323)): 11 (3.4) n (%)
Patients with at least one TE-SAEs ([1]; 100 mg (N = 323)): 41 (12.7) n (%)
SAE: Acute Gallstone-related disorders ([1]; 100 mg (N = 323)): 3 (0.9) n (%)
SAE: COVID-19 ([1]; 100 mg (N = 323)): 1 (0.3) n (%)
SAE: COVID-19 pneumonia ([1]; 100 mg (N = 323)): 0 n (%)
SAE: Cardiac disorders ([1]; 100 mg (N = 323)): 3 (0.9) n (%)
SAE: Gastrointestinal disorders ([1]; 100 mg (N = 323)): 7 (2.2) n (%)
SAE: General disorders and administration site conditions ([1]; 100 mg (N = 323)): 5 (1.5) n (%)
SAE: Infections and infestations ([1]; 100 mg (N = 323)): 5 (1.5) n (%)
SAE: Injury, poisoning and procedural complications ([1]; 100 mg (N = 323)): 8 (2.5) n (%)
SAE: Musculoskeletal and connective tissue disorders ([1]; 100 mg (N = 323)): 1 (0.3) n (%)
SAE: Nervous system disorders ([1]; 100 mg (N = 323)): 2 (0.6) n (%)
SAE: Post procedural haemorrhage ([1]; 100 mg (N = 323)): 1 (0.3) n (%)
SAE: Respiratory, thoracic and mediastinal disorders ([1]; 100 mg (N = 323)): 4 (1.2) n (%)
Adverse event: Abdominal distension [1, 3]: 13 (4.0) no. (%)
Adverse event: Abdominal pain [1, 3]: 29 (9.0) no. (%)
Adverse event: Abdominal pain upper [1, 3]: 27 (8.4) no. (%)
Adverse event: Constipation [1, 3]: 28 (8.7) no. (%)
Adverse event: Cough [1, 3]: 18 (5.6) no. (%)
Adverse event: Decreased appetite [1, 3]: 16 (5.0) no. (%)
Adverse event: Dizziness [1, 3]: 19 (5.9) no. (%)
Adverse event: Gastrooesophageal reflux disease [1, 3]: 7 (2.2) no. (%)
Adverse event: Headache [1, 3]: 25 (7.7) no. (%)
Adverse event: Hypertension [1, 3]: 13 (4.0) no. (%)
Adverse event: Muscle spasms [1, 3]: 22 (6.8) no. (%)
Adverse event: Nasopharyngitis [1, 3]: 20 (6.2) no. (%)
Adverse event: Pain in extremity [1, 3]: 12 (3.7) no. (%)
Adverse event: Procedural pain [1, 3]: 9 (2.8) no. (%)
Adverse event: Rash [1, 3]: 21 (6.5) no. (%)
Adverse event: Sinusitis [1, 3]: 13 (4.0) no. (%)
Adverse event: Type 2 diabetes [1, 3]: 26 (8.0) no. (%)
Adverse event: Upper respiratory tract infection [1, 3]: 8 (2.5) no. (%)
Adverse event: Vomiting [1, 3]: 35 (10.8) no. (%)
drug-induced liver injury ([1]; in vivo): no incidence of drug-induced liver injury
severe diarrhea ([1]; in vivo): no episodes of severe diarrhea
median duration of diarrhea ([1]; independent of dose): 15 to 20 days
total radioactive dose recovered in feces [2]: approximately 67%
total radioactive dose recovered in urine [2]: 24%
unchanged labeled drug in feces [2]: not detected
unchanged labeled drug, dose recovered in urine [2]: 1%
